Counter-ions that a name gives are not always drawn.
How the values were obtained:
Type in all cases: in vivo, C57BL/6J mice
[1] = tested on: GSH-px; experiment: Serum GSH-Px by colorimetry; conditions: metformin 200 mg/kg/d, after 30 days
Protocol: (§1) The levels of T-SOD, MDA and GSH-px in serum are measured by colorimetry, and the level of testosterone (T) in serum is measured by enzyme linked immunosorbent assay (ELISA), all according to the manufacturer's instructions. Data is analyzed using GraphPad Prism 8.4 statistical software. Counting data of experimental results is expressed as rate/percentage (%), and measurement data is expressed as x±s. The one-way ANOVA is used to compare the groups, and the difference is statistically significant with P<0.05.

[2] = tested on: sperm and egg cells; experiment: In vitro fertilization with sperm of the treated mice
From the text: The sperm of the mice in each group is taken for fertilization in vitro.

[3] = tested on: obese type 2 diabetic mice; experiment: Cage experiment (fertility)
Protocol: Female mice of childbearing age are caged with male mice of each group in the ratio of 2:1 for one week, and their fertility is tested by the birth situation.

[4] = tested on: sperm of obese type 2 diabetic mice; experiment: Analysis of semen parameters; conditions: metformin 200 mg/kg/d, after 30 days
Protocol: One side of epididymis in each group is put into a 12-well plate, diluted with 500 μL of normal saline, fully cut into pieces by a tissue scissor, incubated in a 37° C. incubator, and filtered by a 200-mesh sieve, and 20 μL of filtrate is collected on a cell counting plate, observed under a microscope, and the number of sperm is counted. Sperm viability, sperm motility and malformation rate are counted respectively by Yin Hong aniline black and Diff-Quick staining. Data is analyzed using GraphPad Prism 8.4 statistical software. Counting data of experimental results is expressed as rate/percentage (%), and measurement data is expressed as x±s. The one-way ANOVA is used to compare the groups, and the difference is statistically significant with P<0.05.

[5] = tested on: T-SOD; experiment: Serum T-SOD by colorimetry; conditions: metformin 200 mg/kg/d, after 30 days
Protocol: as §1

[6] = Body weight of mice with testicular dysfunction caused by obese type 2 diabetes mellitus; parameters: AUC of weight before treatment: unit not given beside the values
Protocol: With six mice in each group, the mice are randomly assigned after one week of adaptive rearing to a control group (Con), a model group (Model), a high-dose compound group (YPBS-H), a low-dose compound group (YPBS-L) and a metformin group (Metformin, Met). The six mice in the control group are given regular feed, the remaining mice are fed with 60% high-fat feed, the weight of each of mice is recorded every 7 days during the feeding.
The mice in each group have been successfully established after feeding for 16 weeks in step 2.1, and the mice in each group are given medicine treatment as follows.
The high-dose compound group (YPBS-H): the traditional Chinese medicine compound obtained in the embodiment 1 is given at a dose of 4 grams per kilogram per day (g/kg/d) per animal.
The low-dose compound group (YPBS-L): the traditional Chinese medicine compound obtained in the embodiment 1 is given at a dose of 2 g/kg/d per animal.
The metformin group (Met): the metformin is given at a dose of 200 mg/kg/d per animal.
During the administration, the mice are fed with the normal feed and drink water normally, and the weight changes of mice are observed. Data is analyzed using GraphPad Prism 8.4 statistical software. Counting data of experimental results is expressed as rate/percentage (%), and measurement data is expressed as x (i.e., mean)±s. The one-way analysis of variance (ANOVA) is used to compare the groups, and the difference is statistically significant with P<0.05.

[7] = tested on: MDA; experiment: Serum MDA by colorimetry; conditions: metformin 200 mg/kg/d, after 30 days
Protocol: as §1

[8] = tested on: obese type 2 diabetic mice; experiment: Testis, epididymis and seminal vesicle gland coefficients; conditions: metformin 200 mg/kg/d, after 30 days
[9] = tested on: mice with testicular dysfunction caused by obese type 2 diabetes mellitus; experiment: Insulin tolerance test (ITT); conditions: metformin 200 mg/kg/d, after 30 days; blood glucose 0-120 min after insulin
Protocol: (§2) 2.3 After 30 days of administration of each group in step 2.2, the following tests are performed in each group.
(§3) ITT test: the mice are weighed after 5 h fast, the insulin dosage is calculated, and FPG of the mice is measured. Blood glucose fluctuations are then monitored at 15 min, 30 min, 60 min and 120 min after insulin is given. Data is analyzed using GraphPad Prism 8.4 statistical software. Counting data of experimental results is expressed as rate/percentage (%), and measurement data is expressed as x±s. The one-way ANOVA is used to compare the groups, and the difference is statistically significant with P<0.05.

[10] = tested on: testosterone (T); experiment: Serum testosterone by ELISA; conditions: metformin 200 mg/kg/d, after 30 days
Protocol: as §1

[11] = tested on: mouse testis tissue; experiment: HE staining of testis tissue (testicular morphology); conditions: HE staining 200x; metformin 200 mg/kg/d, after 30 days
[12] = tested on: mice with testicular dysfunction caused by obese type 2 diabetes mellitus; experiment: Fasting blood glucose (FPG); conditions: metformin 200 mg/kg/d, day 30
Protocol: as §3, with “OGTT test:” for “ITT test:”, “after 15” for “after 5”, “fast, fasting blood glucose (FPG)” for “fast, the insulin dosage is calculated, and FPG”, “is measured separately, and the amount of glucose is determined based on the mice's weight.” for “is measured.”, “after gavage.” for “after insulin is given.”
as §3

[13] = tested on: p-AKT; experiment: Western blot of p-AKT expression in testis; conditions: Western blot gray values, metformin 200 mg/kg/d, after 30 days
Protocol: (§4) Protein samples are taken and added into concentrated gel of an electrophoresis tank for running the gel, transferring the protein from the gel to the membrane, bovine albumin (BSA) blocking and membrane washing, then primary antibodies (including PI3K (rabbit antibody), AKT (rabbit antibody), p-AKT (rabbit antibody), β-actin (rabbit antibody), Bcl-2 (rabbit antibody) and β-actin (mouse antibody) diluted at the concentration 1:1000) are added for incubation and stay overnight in the refrigerator at 4° C.; the next day, the membrane is washed, after the secondary antibodies (including: a mouse secondary antibody (1:5000) and a rabbit secondary antibody (1:2000)) are added for incubation and blocked, the membrane is washed, followed by development, and then gray values are analyzed. Data is analyzed using GraphPad Prism 8.4 statistical software. Counting data of experimental results is expressed as rate/percentage (%), and measurement data is expressed as x±s. The one-way ANOVA is used to compare the groups, and the difference is statistically significant with P<0.05.

[14] = tested on: PI3K; experiment: Western blot of PI3K expression in testis; conditions: Western blot gray values, metformin 200 mg/kg/d, after 30 days
Protocol: as §4

[15] = tested on: mice with testicular dysfunction caused by obese type 2 diabetes mellitus; experiment: Oral glucose tolerance test (OGTT); conditions: metformin 200 mg/kg/d, after 30 days; blood glucose 0-120 min after gavage
Protocol: as §2
as §3, with “OGTT test:” for “ITT test:”, “after 15” for “after 5”, “fast, fasting blood glucose (FPG)” for “fast, the insulin dosage is calculated, and FPG”, “is measured separately, and the amount of glucose is determined based on the mice's weight.” for “is measured.”, “after gavage.” for “after insulin is given.”

[16] = tested on: Bcl-2; experiment: Western blot of Bcl-2 expression in testis; conditions: Western blot gray values, metformin 200 mg/kg/d, after 30 days
Protocol: as §4

[17] = after treatment, dose group not stated
[18] = of 10 egg cells, sperm of mice given metformin 200 mg/kg/d
[19] = females caged with males 2:1 for one week, males given metformin 200 mg/kg/d

## CN(C)C(=N)N=C(N)N [Met, metformin hydrochloride]
[1]
  GSH-Px: 2206.0 ± 535.6^Δ umol/L
[2]; [17]
  binding rate of sperm and egg cells: increases
  division of fertilized egg cells: divide normally
[2]; [18]
  Number of division of fertilized eggs within 24 hours: 7
  Sperm and egg binding number: 7
[3]; [17]
  fertility of the mice: improved, reaching the normal fertility level
[3]; [19]
  Average number of offspring: 5.3
  Pregnancy rate: 50%
  Vaginal suppository: 50%
[4]
  Sperm count: 85.02 ± 10.55^Δ 10^6/L
  Sperm malformation rate: 68.18 ± 4.12^Δ %
  Sperm motility: 34.55 ± 0.37^Δ %
  Sperm viability: 43.84 ± 3.59^Δ %
[5]
  T-SOD: 168.4 ± 34.7^Δ U/mgprot
[6]; before treatment (16 weeks high-fat feed), metformin group
  AUC of weight before treatment: 613.8 ± 5.3^Δ
[6]; metformin 200 mg/kg/d, 30 days
  AUC of weight after treatment: 1243.0 ± 12.0^Δ
[6]; metformin 200 mg/kg/d, day 30
  Weight on the 30th day after treatment: 37.9 ± 2.2^Δ g
[7]
  MDA: 5.6 ± 1.5^Δ umol/L
[8]
  Epididymis coefficient: 0.33 ± 0.03^Δ %
  Seminal vesicle gland coefficient: 1.21 ± 0.06^Δ %
  Testis coefficient: 0.65 ± 0.04^Δ %
[9]
  ITT-AUC: 760.7 ± 49.5^Δ
[10]
  Testosterone T: 5.06 ± 1.42 ng/mL
[11]
  testicular morphology compared to the model group: considerably improved
[12]
  FPG on the 30th day after treatment: 5.5 ± 0.9^Δ
[13]
  p-AKT/AKT: 0.635 ± 0.141
[14]
  PI3K/β-actin: 0.945 ± 0.056^Δ
[15]
  OGTT-AUC: 1660 ± 70.3^Δ
[16]
  Bcl-2/β-actin: 1.020 ± 0.076^Δ
